Measurements: patent US4751305A, “2-heterocyclobenzo[B][1,6]naphthyridines as inhibitors of interleukin” (American Home Products Corporation, priority 1987, dated 1988)

Tested on: IL 1-induced release of neutral protease from rabbit articular chondrocytes
Assay: inhibition of the IL 1-induced release of neutral protease from rabbit articular chondrocytes (azocoll neutral protease assay)
Format: cell-based
Conditions: Oryctolagus cuniculus, Chondrocyte, compound 10 min before purified human IL 1, 24 h, read-out: % Inhibition (I.S.D.)
Method: The ability of the compounds of the inventions to inhibit interleukin 1 is measured by the ability of the test compounds to inhibit the IL 1-induced release of neutral protease from rabbit articular chondrocytes.
This assay is carried out as follows:
Isolation of rabbit chondrocytes:
Male New Zealand White rabbits are anesthetized with 50 mg/kg of ketamine (i.m.) and killed by an intracardiac injection of 3 mls. of Nembutal. The knee joints of both legs are resected and the articular surfaces are exposed. Cartilage slices are obtained using a scalpel and are placed in a tissue culture dish (100 mm diameter) containing 10 mls of Hank's balanced salt solution (HBSS). The chondrocytes within the cartilage slices are then liberated by a series of enzyme digestions. The slices are incubated for 10 min. at 37° C. in 0.05% hyaluronidase (Sigma H-3884), rinsed with HBSS and incubated with 0.2% trypsin (Sigma T-2395) for 10 min. at 37° C. The slices are rinsed again and incubated for 10 mins. at 37° C. with 1.2% collagenase (Sigma C-5138). The slices are then rinsed again with HBSS and resuspended in 10 ml of Ham's F-12 medium containing 10% fetal bovine calf serum (FCS) and 0.2% collagenase and incubated overnight at 37° C. in a 5% CO2 incubator. The next day, the medium containing the digested cartilage fragments and liberated chondrocytes is transferred to a 15 ml centrifuge tube and the cells are collected by centrifugation and washed twice and resuspended in Ham's F-12 medium. The cells are then plated into 24-well tissue culture plates (2×10^5 cells/well) and incubated at 37° C. until confluent (usually 4-6 days).
Stimulation of chondrocytes and drug treatment:
The confluent chondrocytes are rinsed twice with serum-free Ham's F-12 medium and 1 ml is added to each well. Fifty $1 of purified human IL 1(100 Units/ml; Genzyme Corporation, Boston, MA) is then added to stimulate these cells to secrete neutral protease. To measure drug effects, the cells are treated with test compound 10 min. prior to addition of IL 1. The standard screening dose is 10 $M. Twenty-four hours after IL 1 stimulation, supernatant fluids are collected and assayed for neutral protease activity.
The neutral protease activity of chondrocyte supernatant fluids is determined by their ability to degrade an insoluble protease substrate, azocoll (Sigma). Supernatants are treated for 10 min. at room temperature with 350 $M p-aminophenyl-murcuric acetate to activate the latent enzyme. Three hundred $1 of supernatant is then mixed with 500 $1 of a 20 mg/ml suspension of azocoll and incubated at 37° C. for 18-24 hrs. with gentle rocking. The mixtures are centrifuged and the amount of substrate hydrolyzed is determined by measuring the absorbance of the supernatant at 520 nm.
Drug effects are calculated as the % change in enzyme activity (absorbance)by supernatants from drug-treated chondrocytes relative to enzyme activity of supernatants from vehicle-treated chondrocytes as follows: [formula]

Row | SMILES | inhibition at 10 µM [%] | inhibition at 5 µM (dose 5 μM) [%]
1 | Clc1ccc2c(NNc3ccccc3)c3c(nc2c1)CCN(c1cnccn1)C3 [Example 5, 7-Chloro-1,2,3,4-tetrahydro-10-(2-phenylhydrazino)-2-(2-pyrazinyl)benzo[b][1,6]naphthyridine] | 85 ± 5 | 
2 | Clc1ccc2c(Cl)c3c(nc2c1)CCN(c1ncccn1)C3 [Example 1, 7,10-Dichloro-1,2,3,4-tetrahydro-2-(2-pyrimidinyl)benzo[b][1,6]naphthyridine] | 34 ± 8 | 
3 | Clc1ccc2c(Cl)c3c(nc2c1)CCN(c1ccc2ccccc2n1)C3 [Example 3, 7,10-Dichloro-1,2,3,4-tetrahydro-2-(2-quinolinyl)benzo[b][1,6]naphthyridine] | ≤ 20 | 
4 | N#Cc1ccc(N2CCc3nc4cc(Cl)ccc4c(Cl)c3C2)nc1 [Example 4, 6-(7,10-Dichloro-3,4-dihydrobenzo[b][1,6]naphthyridin-2(1H)-yl)-3-pyridine-carbonitrile, hemihydrate] | 94 | 83
